Assay results reported in ChEMBL document CHEMBL1124909 (J Med Chem, 1990).

What was measured:
Type in all cases: functional
Conditions in all cases: 720 h
Mus musculus [1] = assay: The percentage 30-day survival of the mice at 150 mg/kg dose, with the radiation dose of 10 Gy.
Mus musculus [2] = assay: The percentage 30-day survival of the mice at 600 mg/kg dose, with the radiation dose of 10 GY.
Mus musculus [3] = assay: The percentage 30-day survival of the mice at 300 mg/kg dose, with the radiation dose of 10 GY.
Mus musculus [4] = assay: The percentage 30-day survival of the mice at 75 mg/kg dose, with the radiation dose of 10 Gy.

## NCCCNCCSP(=O)(O)O [AMIFOSTINE]
Mus musculus [1]
  survival at 150 mg/kg: 40%
Mus musculus [2]
  survival at 600 mg/kg: 100%
Mus musculus [3]
  survival at 300 mg/kg: 100%
Mus musculus [4]
  survival at 75 mg/kg: 40%
